In ChEMBL document CHEMBL3045321, “Sensitivity to iprodione, difenoconazole and fludioxonil of Rhizoctonia cerealis isolates collected from wheat in China” (Crop Prot, 2011) one finds EC50 and Activity data, which are given here for three compounds.

Holding throughout (type): functional, organism-based
For experiment [1], the system named is Ceratobasidium cereale. Kind of experiment: Antifungal activity against Ceratobasidium cereale iprodione-sensitive wheat field isolate HN100 assessed as mycelial growth inhibition in potato dextrose agar media at 25 degC measured after 3 days. The following applies: isolate HN100, 72 h.
The test system of experiment [2] is Ceratobasidium cereale. Briefly: Antifungal activity against Ceratobasidium cereale two generation induced iprodione-resistant wheat field isolate HL64R assessed as mycelial growth inhibition in potato dextrose agar media at 25 degC measured after 3 days. The following applies: 72 h.
The test system of experiment [3] is Ceratobasidium cereale. Kind of experiment: Antifungal activity against Ceratobasidium cereale iprodione-sensitive wheat field isolate HD10 assessed as mycelial growth inhibition in potato dextrose agar media at 25 degC measured after 3 days. The following applies: isolate HD10, 72 h.
Experiment [4] relates to Ceratobasidium cereale. Kind of experiment: Antifungal activity against Ceratobasidium cereale iprodione-sensitive wheat field isolate HQ31 assessed as mycelial growth inhibition in potato dextrose agar media at 25 degC measured after 3 days. The following applies: isolate HQ31, 72 h.
Experiment [5] has as its system Ceratobasidium cereale. Kind of experiment: Antifungal activity against Ceratobasidium cereale two generation induced iprodione-resistant wheat field isolate HD10R assessed as mycelial growth inhibition in potato dextrose agar media at 25 degC measured after 3 days. The following applies: 72 h.
Experiment [6] relates to Ceratobasidium cereale. Briefly: Antifungal activity against Ceratobasidium cereale two generation induced iprodione-resistant wheat field isolate HQ3R assessed as mycelial growth inhibition in potato dextrose agar media at 25 degC measured after 3 days. The following applies: 72 h.
Experiment [7] deals with Ceratobasidium cereale. Kind of experiment: Antifungal activity against Ceratobasidium cereale two generation induced iprodione-resistant wheat field isolate HN49R assessed as mycelial growth inhibition in potato dextrose agar media at 25 degC measured after 3 days. The settings on record: 72 h.
In experiment [8] the test system is Ceratobasidium cereale. Kind of experiment: Antifungal activity against Ceratobasidium cereale two generation induced iprodione-resistant wheat field isolate HN100R assessed as mycelial growth inhibition in potato dextrose agar media at 25 degC measured after 3 days. The settings on record: 72 h.
Experiment [9] relates to Ceratobasidium cereale. Briefly: Antifungal activity against Ceratobasidium cereale iprodione-sensitive wheat field isolate HQ3 assessed as mycelial growth inhibition in potato dextrose agar media at 25 degC measured after 3 days. The following applies: isolate HQ3, 72 h.
In experiment [10] the test system is Ceratobasidium cereale. Briefly: Antifungal activity against Ceratobasidium cereale iprodione-sensitive wheat field isolate HL64 assessed as mycelial growth inhibition in potato dextrose agar media at 25 degC measured after 3 days. The settings on record: isolate HL64, 72 h.
Experiment [11] concerns Ceratobasidium cereale. Kind of experiment: Antifungal activity against Ceratobasidium cereale iprodione-sensitive wheat field isolate HN49 assessed as mycelial growth inhibition in potato dextrose agar media at 25 degC measured after 3 days. The settings on record: isolate HN49, 72 h.
Experiment [12] relates to Ceratobasidium cereale. Briefly: Antifungal activity against Ceratobasidium cereale wheat field isolate assessed as mycelial growth inhibition at 25 degC measured after 3 days. The following applies: 72 h.
Experiment [13] relates to Ceratobasidium cereale. Kind of experiment: Antifungal activity against Ceratobasidium cereale iprodione-sensitive wheat field isolate HQ12 assessed as mycelial growth inhibition in potato dextrose agar media at 25 degC measured after 3 days. The settings on record: isolate HQ12, 72 h.
For experiment [14], the system named is Ceratobasidium cereale. Briefly: Antifungal activity against Ceratobasidium cereale two generation induced iprodione-resistant wheat field isolate HQ12R assessed as mycelial growth inhibition in potato dextrose agar media at 25 degC measured after 3 days. The following applies: 72 h.
For experiment [15], the system named is Ceratobasidium cereale. Briefly: Antifungal activity against Ceratobasidium cereale two generation induced iprodione-resistant wheat field isolate HQ31R assessed as mycelial growth inhibition in potato dextrose agar media at 25 degC measured after 3 days. The following applies: 72 h.
The test system of experiment [16] is Ceratobasidium cereale. Kind of experiment: Antifungal activity against Ceratobasidium cereale wheat field isolate assessed as mycelial growth inhibition at 10 ug/mL in potato dextrose agar media 25 degC measured after 5 days.

A word on the EC50: it is the midpoint of the concentration-response curve.

Values after ≈ are worked out from the molar mass of the structure shown. Active and inactive are the calls of the source. No cut-off for these calls is given here.

`N#Cc1c[nH]cc1-c1cccc2c1OC(F)(F)O2` [FLUDIOXONIL]: the EC50 in experiment [1] was 0.024 mg/L (≈ 0.0967 µM); in experiment [2], greater than 100 mg/L; in experiment [3] it was 0.05 mg/L (≈ 0.201 µM); in experiment [4], 0.026 mg/L (≈ 0.105 µM); in experiment [5], greater than 100 mg/L; in experiment [6] it was greater than 100 mg/L. In addition, the EC50 in experiment [7] is greater than 100 mg/L; in experiment [8], greater than 100 mg/L; in [9] it was 0.015 mg/L (≈ 0.0604 µM); in experiment [10] it was 0.022 mg/L (≈ 0.0886 µM); in experiment [11] it was 0.026 mg/L (≈ 0.105 µM); in experiment [12] it was 0.033 mg/L (≈ 0.133 µM). The EC50 is 0.032 mg/L (≈ 0.129 µM) in experiment [13], greater than 100 mg/L in experiment [14] and greater than 100 mg/L in experiment [15].

On to `CC(C)NC(=O)N1CC(=O)N(c2cc(Cl)cc(Cl)c2)C1=O` [IPRODIONE], for which the EC50 is 0.249 mg/L (≈ 0.754 µM) in experiment [1]; greater than 100 mg/L in experiment [2]; 0.46 mg/L (≈ 1.39 µM) in experiment [3]; 0.35 mg/L (≈ 1.06 µM) in experiment [4]; greater than 100 mg/L in [5]; greater than 100 mg/L in [6]. In addition, the EC50 in experiment [7] is greater than 100 mg/L; in experiment [8], greater than 100 mg/L; in experiment [9], 0.357 mg/L (≈ 1.08 µM); in experiment [10], 0.372 mg/L (≈ 1.13 µM); in experiment [11] it was 0.481 mg/L (≈ 1.46 µM); in experiment [12] it was 0.419 mg/L (≈ 1.27 µM). Further, the EC50 in experiment [13] is 0.725 mg/L (≈ 2.2 µM); in experiment [14], greater than 100 mg/L; in experiment [15], greater than 100 mg/L. Also, in experiment [16], the outcome was Active.

In the case of `CC1COC(Cn2cncn2)(c2ccc(Oc3ccc(Cl)cc3)cc2Cl)O1` (stereo unspecified) [DIFENOCONAZOLE], the EC50 came out at 0.095 mg/L (≈ 0.234 µM) in experiment [1]; 0.057 mg/L (≈ 0.14 µM) in experiment [2]; 0.066 mg/L (≈ 0.162 µM) in [3]; 0.037 mg/L (≈ 0.0911 µM) in [4]; 0.07 mg/L (≈ 0.172 µM) in experiment [5]; 0.034 mg/L (≈ 0.0837 µM) in [6]. Further, the EC50 in [7] was found to be 0.074 mg/L (≈ 0.182 µM); in experiment [8] it was 0.01 mg/L (≈ 0.0246 µM); in experiment [9], 0.04 mg/L (≈ 0.0985 µM); in experiment [10], 0.032 mg/L (≈ 0.0788 µM); in experiment [11], 0.07 mg/L (≈ 0.172 µM); in experiment [12], 0.062 mg/L (≈ 0.153 µM). For the same compound, the EC50 in [13] turned out to be 0.082 mg/L (≈ 0.202 µM); in experiment [14], 0.092 mg/L (≈ 0.226 µM); in experiment [15] it was 0.06 mg/L (≈ 0.148 µM).
